Results published in patent US6410054B1, “Immediate release eplerenone compositions” (G. D. Searle & Co., priority 1998, dated 2002).

Tests used:
[1] = Multiple dose study: serum electrolytes, renin, aldosterone, sex hormone and thyroid profiles; assay type: in vivo, humans
Description: Multiple oral dose tolerability and the pharmacokinetics of several dosages of eplerenone were evaluated in a double-blind, randomized, placebo-controlled, rising oral dose, sequential panel study of 40 healthy male subjects (five groups of eight subjects). The study medication was administered in […] sequential dose panels, with each panel including eplerenone, spironolactone and placebo. […] The 100 mg and 200 mg dose capsules corresponded to those described in Examples 7 and 8, respectively. Following a 48-hour interval, the study drug was administered once a day for 11 days. Antialdosterone activity was determined following a fludrocortisone challenge on Days 12-13.
Excretion of total eplerenone (that is, eplerenone and its open ring lactone form) in the urine represented approximately 5% of the dose for all doses administered. Urinary excretion of total eplerenone occurred almost entirely within the first 24 hours after dosing.

[2] = parameters: species or system beagle dogs; conditions: female, beagle, dog, in vivo
Description: The effect of the particle size of the eplerenone starting material used in the pharmaceutical composition on eplerenone plasma concentrations and relative bioavailability was studied in a dog model. Four healthy female beagle dogs weighing between 8 to 12 kg were intragastrically administered one immediate release (IR) capsule containing the formulation described in Table 30A below followed by about 10 mL of water.
The dogs were fasted for 15 to 20 hours prior to administration of the capsule and were not fed again until at least 4 hours after dose administration. Blood samples (approximately 3 mL) were collected by venipuncture in chilled tubes containing heparin at 0, 0.5, 1, 2, 3, 4, 6, 8 and 24 hours after dose administration. The blood samples were immediately placed on ice. Separation of plasma from the blood samples was complete after about 15 minutes of centrifugation. The resulting plasma samples were frozen at about −20° C. and stored until analyzed. Analysis was performed using an LC/MS/MS procedure.
This study was conducted using the same four dogs for three formulations that were identical except for the particle size of the eplerenone starting material. […]

COC(=O)C1CC2=CC(=O)CCC2(C)C23OC2CC2(C)C(CC[C@@]24CCC(=O)O4)C13 (stereo partly drawn) [eplerenone, methyl hydrogen 9,11α-epoxy-17α-hydroxy-3-oxopregn-4-ene-7α,21-dicarboxylate, γ-lactone]
mean plasma renin (active and total) levels ([1]; 100-1000 mg): dose-related increases
serum aldosterone levels ([1]; 100-1000 mg): dose-related increases
serum sex hormone and thyroid profiles ([1]; 100-1000 mg): did not show any consistent, sustained or dose-related effects
serum potassium concentrations ([1]; multiple dose administration): increases
serum sodium concentrations ([1]; multiple dose administration): transient reductions
serum sodium and potassium concentrations ([1]; single doses): not significantly changed
increase of relative bioavailability [2]: ~100%
